This note sets out measurements from patent US20120214822A1 (ASTRAZENECA AB, priority 2007, published 2012).

The target in this assay is human active recombinant p38α-6His tagged (Homo sapiens, UniProt Q16539). The assay is described as follows: P38 Alpha Enzyme Assay (AlphaScreen, biotinylated-ATF2 substrate).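 Note: 0.5 nM final p38α, reaction started with ATP and run 45 min at 37 °C, phospho-ATF2 read by antibody-based AlphaScreen, background wells quenched with EDTA before ATP.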 In kind it is biochemical. The conditions noted are these: p38 alpha enzyme inhibition; means of replicate determinations; 4 h pre-incubation at 37° C.; SD of assay 0.2-0.3 log units.
Sequence of human active recombinant p38α-6His tagged (Q16539 whole entry): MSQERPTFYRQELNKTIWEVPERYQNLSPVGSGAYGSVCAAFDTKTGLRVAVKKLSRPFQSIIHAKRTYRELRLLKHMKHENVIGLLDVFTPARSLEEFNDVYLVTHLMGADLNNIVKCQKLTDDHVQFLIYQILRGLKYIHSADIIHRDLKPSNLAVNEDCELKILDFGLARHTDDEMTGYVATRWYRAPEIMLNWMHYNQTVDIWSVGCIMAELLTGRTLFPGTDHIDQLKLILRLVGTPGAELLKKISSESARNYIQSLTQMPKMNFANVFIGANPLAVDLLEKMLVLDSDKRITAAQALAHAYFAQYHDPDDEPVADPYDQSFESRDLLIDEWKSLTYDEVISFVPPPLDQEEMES
As usually defined, the pIC50 is the negative decadic logarithm of the IC50, by convention in mol/L. Regarding `Cc1ccc(C(=O)NC2CC2)cc1-n1ccnc(NC(C)(C)c2ccccc2OCCCCNCC(F)(F)F)c1=O` [Example 205, N-Cyclopropyl-4-methyl-3-[3-[[1-methyl-1-[2-[4-[(2,2,2-trifluoroethyl)amino]butoxy]phenyl]ethyl]amino]-2-oxo-1(2H)-pyrazinyl]-benzamide], the pIC50 was 9.

On to `Cc1ccc(C(=O)NC2CC2)cc1-n1ccnc(NC(C)(C)c2ccccc2OCCCCN2CCN(C)CC2)c1=O` [Example 206, N-Cyclopropyl-4-methyl-3-[3-[[1-methyl-1-[2-[4-(4-methyl-1-piperazinyl)butoxy]phenyl]ethyl]amino]-2-oxo-1(2H)-pyrazinyl]-benzamide], for which the negative logarithm of the IC50 (pIC50) amounted to 9.3.

On to `Cc1ccc(C(=O)NC2CC2)cc1-n1ccnc(NC(C)(C)c2ccccc2OCCCNCC(F)(F)F)c1=O` [Example 207, N-Cyclopropyl-4-methyl-3-[3-[[1-methyl-1-[2-[3-[(2,2,2-trifluoroethyl)amino]propoxy]phenyl]ethyl]amino]-2-oxo-1(2H)-pyrazinyl]-benzamide], for which the pIC50 stood at 8.9.

Regarding `Cc1ccc(C(=O)NC2CC2)cc1-n1ccnc(NC(C)(C)c2ccccc2OCCCN2CCN(C)CC2)c1=O` [Example 208, N-Cyclopropyl-4-methyl-3-[3-[[1-methyl-1-[2-[3-(4-methyl-1-piperazinyl)propoxy]phenyl]ethyl]amino]-2-oxo-1(2H)-pyrazinyl]-benzamide], the pIC50 is recorded as 9.1.

As to `Cc1ccc(C(=O)NC2CC2)cc1-n1ccnc(NC(C)(C)c2ccccc2OC(C)CN2CCN(C)CC2)c1=O` (centres unmarked) [Example 209, N-Cyclopropyl-4-methyl-3-[3-[[1-methyl-1-[2-[1-methyl-2-(4-methyl-1-piperazinyl)ethoxy]phenyl]ethyl]amino]-2-oxo-1(2H)-pyrazinyl]-benzamide], the pIC50 is given as 8.9.

Turning to `COCCNCCOc1ccccc1C(C)(C)Nc1nccn(-c2cc(C(=O)NC3CC3)ccc2C)c1=O` [Example 210, N-Cyclopropyl-3-[3-[[1-[2-[2-[(2-methoxyethyl)amino]ethoxy]phenyl]-1-methylethyl]amino]-2-oxo-1(2H)-pyrazinyl]-4-methyl-benzamide], the pIC50 is reported as 9.5.

Take `Cc1ccc(C(=O)NC2CC2)cc1-n1ccnc(NC(C)(C)c2ccccc2OCCNCCO)c1=O` [Example 211, N-Cyclopropyl-3-[3-[[1-[2-[2-[(2-hydroxyethyl)amino]ethoxy]phenyl]-1-methylethyl]amino]-2-oxo-1(2H)-pyrazinyl]-4-methyl-benzamide]: the pIC50 was 9.6.

Take `Cc1ccc(C(=O)NC2CC2)cc1-n1ccnc(NC(C)(C)c2ccccc2OCCNC(C)C)c1=O` [Example 212, N-Cyclopropyl-4-methyl-3-[3-[[1-methyl-1-[2-[2-[(1-methylethyl)amino]ethoxy]phenyl]ethyl]amino]-2-oxo-1(2H)-pyrazinyl]-benzamide]: the negative logarithm of the IC50 (pIC50) stood at 9.6.

As to `Cc1ccc(C(=O)NC2CC2)cc1-n1ccnc(NC(C)(C)c2ccccc2OCCNC[C@H](C)O)c1=O` [Example 213, N-Cyclopropyl-3-[3-[[1-[2-[2-[[(2S)-2-hydroxypropyl]amino]ethoxy]phenyl]-1-methylethyl]amino]-2-oxo-1(2H)-pyrazinyl]-4-methyl-6-benzamide], the pIC50 is on record as 9.9.

Consider `Cc1ccc(C(=O)NC2CC2)cc1-n1ccnc(NC(C)(C)c2ccccc2OCC2CCNCC2)c1=O` [Example 214, N-Cyclopropyl-4-methyl-3-[3-[[1-methyl-1-[2-(4-piperidinylmethoxy)phenyl]ethyl]amino]-2-oxo-1(2H)-pyrazinyl]-benzamide], for which the pIC50 is given as 9.1.

With `Cc1ccc(C(=O)NC2CC2)cc1-n1ccnc(NC(C)(C)c2ccccc2OC2CNC2)c1=O` [Example 215, N-Cyclopropyl-4-methyl-3-[3-[[1-[2-(3-azetidinyloxy)phenyl]-1-methylethyl]amino]-2-oxo-1(2H)-pyrazinyl]-benzamide], the pIC50 came out at 9.6.

As for `Cc1ccc(C(=O)NC2CC2)cc1-n1ccnc(NC(C)(C)c2ccccc2OC2CCNC2)c1=O` (centres unmarked) [Example 216, N-Cyclopropyl-4-methyl-3-[3-[[1-methyl-1-[2-(3-pyrrolidinyloxy)phenyl]ethyl]amino]-2-oxo-1(2H)-pyrazinyl]-benzamide], the pIC50 was 9.4.

With `Cc1ccc(C(=O)NC2CC2)cc1-n1ccnc(NC(C)(C)c2ccccc2OCCC2CCNCC2)c1=O` [Example 217, N-Cyclopropyl-4-methyl-3-[3-[[1-methyl-1-[2-[2-(4-piperidinyl)ethoxy]phenyl]ethyl]amino]-2-oxo-1(2H)-pyrazinyl]-benzamide], the pIC50 was determined as 9.6.

With `Cc1ccc(C(=O)NC2CC2)cc1-n1ccnc(NC(C)(C)c2ccccc2OCC2CCCNC2)c1=O` (centres unmarked) [Example 218, N-Cyclopropyl-4-methyl-3-[3-[[1-methyl-1-[2-(3-piperidinylmethoxy)phenyl]ethyl]amino]-2-oxo-1(2H)-pyrazinyl]-benzamide], the negative logarithm of the IC50 (pIC50) is 9.1.

With `Cc1ccc(C(=O)NC2CC2)cc1-n1ccnc(NC(C)(C)c2ccccc2OC2CCNCC2)c1=O` [Example 219, N-Cyclopropyl-4-methyl-3-[3-[[1-methyl-1-[2-(4-piperidinyloxy)phenyl]ethyl]amino]-2-oxo-1(2H)-pyrazinyl]-benzamide], the pIC50 is reported as 9.3.

`CCNC(=O)c1ccc(C)c(-n2ccnc(NC(C)(C)c3ccccc3OCCNC)c2=O)c1` [Example 220, N-Ethyl-4-methyl-3-[3-[[1-methyl-1-[2-[2-(methylamino)ethoxy]phenyl]ethyl]amino]-2-oxo-1(2H)-pyrazinyl]-benzamide]: the pIC50 came to 8.3.

Consider `CNCCOc1ccccc1C(C)(C)Nc1nccn(-c2cc(C(=O)N3CCC3)ccc2C)c1=O` [Example 221, 1-[4-Methyl-3-[3-[[1-methyl-1-[2-[2-(methylamino)ethoxy]phenyl]ethyl]amino]-2-oxo-1(2H)-pyrazinyl]benzoyl]-azetidine], for which the negative-log IC50 (pIC50) amounted to 6.7.

Turning to `CCONC(=O)c1ccc(C)c(-n2ccnc(NC(C)(C)c3ccccc3OCCNC)c2=O)c1` [Example 222, N-Ethoxy-4-methyl-3-[3-[[1-methyl-1-[2-[2-(methylamino)ethoxy]phenyl]ethyl]amino]-2-oxo-1(2H)-pyrazinyl]-benzamide], the pIC50 turned out to be 9.

As to `CNCCOc1ccccc1C(C)(C)Nc1nccn(-c2cc(C(=O)NC(C)C)ccc2C)c1=O` [Example 223, 4-Methyl-N-(1-methylethyl)-3-[3-[[1-methyl-1-[2-[2-(methylamino)ethoxy]phenyl]ethyl]amino]-2-oxo-1(2H)-pyrazinyl]-benzamide], the negative-log IC50 (pIC50) is given as 8.1.

For `CNCCOc1ccccc1C(C)(C)Nc1nccn(-c2cc(C(=O)NC3CCC3)ccc2C)c1=O` [Example 224, N-Cyclobutyl-4-methyl-3-[3-[[1-methyl-1-[2-[2-(methylamino)ethoxy]phenyl]ethyl]amino]-2-oxo-1(2H)-pyrazinyl]-benzamide], the negative logarithm of the IC50 (pIC50) came out at 8.4.

For `CNCCOc1ccccc1C(C)(C)Nc1nccn(-c2cc(C(=O)NCCF)ccc2C)c1=O` [Example 225, N-(2-Fluoroethyl)-4-methyl-3-[3-[[1-methyl-1-[2-[2-(methylamino)ethoxy]phenyl]ethyl]amino]-2-oxo-1(2H)-pyrazinyl]-benzamide], the pIC50 was found to be 8.2.

With `CNCCOc1ccccc1C(C)(C)Nc1nccn(-c2cc(C(=O)NCC(C)C)ccc2C)c1=O` [Example 226, 4-Methyl-3-[3-[[1-methyl-1-[2-[2-(methylamino)ethoxy]phenyl]ethyl]amino]-2-oxo-1(2H)-pyrazinyl]-N-(2-methylpropyl)-benzamide], the pIC50 is listed as 6.6.

Turning to `CNCCOc1ccccc1C(C)(C)Nc1nccn(-c2cc(C(=O)NC3(C)CC3)ccc2C)c1=O` [Example 227, 4-Methyl-N-(1-methylcyclopropyl)-3-[3-[[1-methyl-1-[2-[2-(methylamino)ethoxy]phenyl]ethyl]amino]-2-oxo-1(2H)-pyrazinyl]-benzamide], the pIC50 is listed as 8.5.

For `CNCCOc1ccccc1C(C)(C)Nc1nccn(-c2cc(C(=O)NCCO)ccc2C)c1=O` [Example 228, N-(2-Hydroxyethyl)-4-methyl-3-[3-[[1-methyl-1-[2-[2-(methylamino)ethoxy]phenyl]ethyl]amino]-2-oxo-1(2H)-pyrazinyl]-benzamide], the pIC50 is 6.8.

For `CNCCOc1ccccc1C(C)(C)Nc1nccn(-c2cc(C(N)=O)ccc2C)c1=O` [Example 229, 4-Methyl-3-[3-[[1-methyl-1-[2-[2-(methylamino)ethoxy]phenyl]ethyl]amino]-2-oxo-1(2H)-pyrazinyl]benzamide], the pIC50 was found to be 8.6.

In the case of `Cc1ccc(C(=O)NC2CC2)cc1-n1ccnc(NC2(c3ccccc3OCCNC[C@H](C)O)CC2)c1=O` [Example 230, N-Cyclopropyl-3-[3-[[1-[2-[2-[[(2S)-2-hydroxypropyl]amino]ethoxy]phenyl]cyclopropyl]amino]-2-oxo-1(2H)-pyrazinyl]-4-methyl-benzamide], the pIC50 came to 10.

With `COCCNCCOc1ccccc1C1(Nc2nccn(-c3cc(C(=O)NC4CC4)ccc3C)c2=O)CC1` [Example 231, N-Cyclopropyl-3-[3-[[1-[2-[2-[(2-methoxyethyl)amino]ethoxy]phenyl]cyclopropyl]amino]-2-oxo-1(2H)-pyrazinyl]-4-methyl-benzamide], the pIC50 turned out to be 9.9.

For `Cc1ccc(C(=O)NC2CC2)cc1-n1ccnc(NC2(c3ccccc3OCCN3CCN(CCO)CC3)CC2)c1=O` [Example 232, N-Cyclopropyl-3-[3-[[1-[2-[2-[4-(2-hydroxyethyl)-1-piperazinyl]ethoxy]phenyl]cyclopropyl]amino]-2-oxo-1(2H)-pyrazinyl]-4-methyl-benzamide], the pIC50 came to 9.1.

Turning to `Cc1ccc(C(=O)NC2CC2)cc1-n1ccnc(NC2(c3ccccc3OCCNCCO)CC2)c1=O` [Example 233, N-Cyclopropyl-3-[3-[[1-[2-[2-[(2-hydroxyethyl)amino]ethoxy]phenyl]cyclopropyl]amino]-2-oxo-1(2H)-pyrazinyl]-4-methyl-benzamide], the negative logarithm of the IC50 (pIC50) is on record as 9.9.
